Laboratory results from PubChem BioAssay (NCI).
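Method: 48-hour compound exposure of cells in 96-well plates, five concentrations, linear interpolation of endpoints. TGI: total growth inhibition.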

Experiments:
Assay in all cases: NCI tumour cell line growth inhibition, 48 h
[1] = test system: NCI/ADR-RES ovarian
[2] = test system: EKVX NSCLC
[3] = test system: SNB-19 CNS
[4] = test system: HCC-2998 colon
[5] = test system: CCRF-CEM leukemia
[6] = test system: OVCAR-5 ovarian
[7] = test system: LOX IMVI melanoma
[8] = test system: OVCAR-8 ovarian
[9] = test system: SF-268 CNS
[10] = test system: HCT-15 colon
[11] = test system: HL-60(TB) leukemia
[12] = test system: SF-539 CNS
[13] = test system: SK-MEL-2 melanoma
[14] = test system: 786-0 renal
[15] = test system: SK-MEL-5 melanoma
[16] = test system: SF-295 CNS
[17] = test system: K-562 leukemia
[18] = test system: NCI-H460 lung
[19] = test system: NCI-H522 lung

| Compound | TGI [1] [µM] | TGI [2] [µM] | TGI [3] [µM] | TGI [4] [µM] | TGI [5] [µM] | TGI [6] [µM] | TGI [7] [µM] | TGI [8] [µM] | TGI [9] [µM] | TGI [10] [µM] | TGI [11] [µM] | TGI [12] [µM] | TGI [13] [µM] | TGI [14] [µM] | TGI [15] [µM] | TGI [16] [µM] | TGI [17] [µM] | TGI [18] [µM] | TGI [19] [µM] |
| --- | --- | --- | --- | --- | --- | --- | --- | --- | --- | --- | --- | --- | --- | --- | --- | --- | --- | --- | --- |
| CC(C)CNC(=O)Cn1c2c(c3ccccc31)CCCC2 | > 100 | > 100 | > 100 | > 100 | > 100 | > 100 | > 100 | > 100 | > 100 | > 100 | > 100 | > 100 | > 100 | 61.2 | > 100 | > 100 | > 100 | > 100 |  |
| O=[N+]([O-])c1nccn1CC1OC(n2ccnc2[N+](=O)[O-])C(O)C(O)C1O (stereo not drawn) |  | > 100 | > 100 | > 100 | > 100 | > 100 |  | > 100 |  |  | > 100 |  | > 100 | > 100 | > 100 |  | > 100 | > 100 |  |
| O=C1N[C@@H]([C@H](CCCCCO)OC(=O)c2ccccc2)CO1 | > 100 | > 100 | > 100 |  | > 100 | > 100 | > 100 | > 100 |  | > 100 | > 100 | > 100 | > 100 | > 100 | > 100 | > 100 | > 100 | > 100 |  |
| O=C(NCCNCCO)N/N=C/c1ccc([N+](=O)[O-])cc1 | > 100 |  | > 100 | > 100 | > 100 | > 100 |  | > 100 | > 100 | > 100 | > 100 | > 100 | > 100 | > 100 | > 100 | > 100 | > 100 | > 100 | > 100 |
| N#Cc1c2c([nH]c(=O)c1C#N)CCCC2 | > 100 | > 100 | > 100 | > 100 | > 100 | > 100 | > 100 | > 100 | > 100 | > 100 | > 100 | > 100 | > 100 | > 100 | > 100 | > 100 | > 100 | > 100 |  |
| CCOC(=O)C(O)(NC(=O)Nc1ccc(F)cc1)C(F)(F)F (stereo not drawn) | > 100 | > 100 | > 100 | > 100 | > 100 | > 100 | > 100 | > 100 | > 100 | > 100 | > 100 | > 100 | > 100 | > 100 | > 100 |  | > 100 |  |  |
| CC(Oc1ccc(OCC2CCCCC2)cc1)C(=O)N(CCO)CCO (stereo not drawn) |  |  | > 100 | > 100 | > 100 |  | > 100 | > 100 | > 100 | > 100 | > 100 | 39.8 | > 100 | > 100 | > 100 | > 100 | > 100 | > 100 | > 100 |
| CN(C)Cc1cc(N=Nc2ccccc2Cl)cc(CN(C)C)c1O | > 100 | > 100 | > 100 | > 100 | 76.7 | > 100 | 38.7 | > 100 | > 100 | > 100 | 62.8 | > 100 |  | > 100 | 32 | > 100 | > 100 | > 100 | 28.8 |
| Cc1cccc(Nc2cn(CCOc3ccccc3)c(=O)n(CCOc3ccccc3)c2=O)c1 |  | 96.9 | > 100 | > 100 | > 100 | > 100 | > 100 |  | > 100 | > 100 |  |  |  | > 100 | > 100 | > 100 | > 100 | > 100 |  |
| NCCCc1ccc2oc3ccccc3c2c1 | 46.3 |  | 31 | 22.5 | 32.6 | 26.2 | 39.9 | 57 | 39.1 | 36.4 | 31.2 | 36.9 | 38.2 | 28.3 | 28.5 | 33.2 | 69.4 | 34.1 | 40 |
| Nc1ccc(S(=O)(=O)c2ccc(NC(=O)c3cccnc3)cc2)cc1 | > 100 | > 100 | > 100 | > 100 |  | > 100 | > 100 | > 100 | > 100 | > 100 | > 100 |  |  | > 100 | > 100 | > 100 | > 100 | > 100 | > 100 |
| C1=NCCOCCN=Cc2ccccc2OCc2cccc(n2)COc2ccccc21 | 13.4 | > 25 | > 25 |  | > 25 | > 25 |  | 16.9 | > 25 | 16.5 | 16.3 | 9.13 | > 25 | > 25 |  | 12 | > 25 | > 25 | > 25 |
| NC(N)=NC(N)=Nc1c(F)c(F)c(F)c(F)c1F | > 100 | > 100 | > 100 |  |  | > 100 |  | > 100 | > 100 | > 100 |  | > 100 | > 100 | > 100 | > 100 | > 100 | > 100 | > 100 | > 100 |
| CCOC(=O)C1(Cc2c[nH]c3ccccc23)C(O)CCCN1C(C)=O (stereo not drawn) | > 100 | > 100 | > 100 | > 100 | > 100 | > 100 | > 100 | > 100 | > 100 | > 100 | > 100 | > 100 | > 100 | > 100 | > 100 | > 100 | > 100 | > 100 |  |
| O=Cc1cc2c(o1)C(=O)c1ccccc1C2=O | 5.54 | 7.46 | 1.62 | 3.43 | 6.4 | 3.25 | 0.679 | 2.72 | 4.13 |  | 1.15 | 2.25 | 4.2 | 2.9 | 0.698 | 0.813 |  | 2.39 |  |
